Measurements from patent publication US10738028B2, “Spiro three-membered ring, spiro five-membered ring peptide deformylase inhibitor and use thereof in antibacteria and anti-tumor” (priority 2016, dated 2020).
Read-outs that look alike come from different tables or passages of the source.

What was measured:
Type in all cases: cell-based
[1] = test system: HCT-116 colorectal cancer cell line; assay: CCK-8 proliferation inhibition; settings: Homo sapiens, 72 hours, CCK-8; for inhibition at 30 µM: HCT-116, 72 h, concentration of 30 μM
Procedure, shortened: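 Cells seeded at 2000 cells/well, cultured overnight at 37 °C, 5% CO2, then exposed to compound (DMSO; control 1‰ DMSO) for 72 h in McCoy's 5A with 10% newborn bovine serum. Viability read with 1:10 diluted CCK-8.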

[2] = test system: A549 lung cancer cell line; assay: CCK-8 proliferation inhibition; settings: Homo sapiens
Procedure, shortened: (§1)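 Plating at 2000 cells/well, then incubation overnight at 37° C. Next, a range of compound concentrations for 72 hours (control 1‰ DMSO). Finally, medium decanted and CCK-8 diluted 1:10 added.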

[3] = test system: MGC-803 gastric cancer cell line; assay: CCK-8 proliferation inhibition; settings: Homo sapiens
Procedure, shortened: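 Cells seeded at 2000 cells/well, cultured overnight at 37 °C, 5% CO2, then exposed 72 h to compound dilutions in medium with 10% newborn bovine serum (1‰ DMSO control). Viability read with 1:10 diluted CCK-8 solution. Media: PC3 in F12; MGC-803 and Jurkat in 1640; MCF-7 in DMEM high glucose.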

[4] = test system: BEL-7402 liver cancer cell line; assay: CCK-8 proliferation inhibition
Procedure, shortened: as §1

[5] = test system: Escherichia coli (including ESBLs, non-ESBLs); assay: MIC, two-fold agar dilution (CLSI), clinical isolates
Procedure, shortened: (§2)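 Test samples were assayed by the CLSI-recommended two-fold agar dilution method, and the minimum inhibitory concentration against each tested strain was determined.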

[6] = test system: methicillin-sensitive Staphylococcus aureus (MSSA); assay: as above
Procedure, shortened: as §2

[7] = test system: Enterococcus faecium (EFM); assay: as above
Procedure, shortened: as §2

[8] = test system: Moraxella catarrhalis (BCA); assay: as above
Procedure, shortened: as §2

[9] = test system: Streptococcus pneoumoniae (SPN); assay: as above
Procedure, shortened: as §2

[10] = test system: methicillin-sensitive Staphylococcus epidermidis (MSSE); assay: as above
Procedure, shortened: as §2

[11] = test system: Enterococcus faecalis (EFA); assay: as above
Procedure, shortened: as §2

[12] = test system: methicillin-resistant Staphylococcus epidermidis (MRSE); assay: as above
Procedure, shortened: as §2

[13] = test system: methicillin-resistant Staphylococcus aureus (MRSA); assay: as above
Procedure, shortened: as §2

CCCC[C@H](CC(=O)NO)C(=O)N1CC2(CC2)C[C@H]1C(=O)Nc1cc(C(C)(C)C)on1 [Example 55]
25.9 µM: IC50 ([4]; Homo sapiens, Bel-7402, 72 hours)
8 mg/L: Anti-bacterial activity (MIC), strain EFA 15-9 ([11]; clinical isolate EFA 15-9)
12.1 µM: IC50 ([2]; A549, 72 hours)
≥ 30%: inhibition at 30 µM ([1]; Table 5, read-out: Inhibition of proliferation, Colorectal cancer HCT116)
4 mg/L: Anti-bacterial activity (MIC), strain BCA 14-1 ([8]; clinical isolate BCA 14-1) | Anti-bacterial activity (MIC), strain BCA 14-4 ([8]; clinical isolate BCA 14-4) | Anti-bacterial activity (MIC), strain BCA 14-7 ([8]; clinical isolate BCA 14-7) | Anti-bacterial activity (MIC), strain BCA 14-8 ([8]; clinical isolate BCA 14-8) | Anti-bacterial activity (MIC), strain BCA 14-10 ([8]; clinical isolate BCA 14-10)
15.2 µM: IC50 ([1]; HCT-116)
33%: inhibition at 30 µM ([3]; MGC-803, 72 h, concentration of 30 μM)
> 50%: inhibition at 30 µM ([4]; Homo sapiens, Bel-7402, 72 h, concentration of 30 μM)
0.5 mg/L: Anti-bacterial activity (MIC), strain MSSA 15-3 ([6]; clinical isolate MSSA 15-3) | Anti-bacterial activity (MIC), strain EFM 15-5 ([7]; clinical isolate EFM 15-5) | Anti-bacterial activity (MIC), strain MRSA 15-2 ([13]; clinical isolate MRSA 15-2) | Anti-bacterial activity (MIC), strain MRSA 15-3 ([13]; clinical isolate MRSA 15-3) | Anti-bacterial activity (MIC), strain MRSA 15-4 ([13]; clinical isolate MRSA 15-4)
0.25 mg/L: Anti-bacterial activity (MIC), strain MRSA 15-1 ([13]; clinical isolate MRSA 15-1)
29.5 µM: IC50 ([3]; MGC-803, 72 hours)
1 mg/L: Anti-bacterial activity (MIC), strain ECO+ 15-4 ([5]; clinical isolate ECO+ 15-4) | Anti-bacterial activity (MIC), strain MSSA 15-4 ([6]; clinical isolate MSSA 15-4) | Anti-bacterial activity (MIC), strain MSSA 15-5 ([6]; clinical isolate MSSA 15-5) | Anti-bacterial activity (MIC), strain BCA 14-5 ([8]; clinical isolate BCA 14-5) | Anti-bacterial activity (MIC), strain SPN 16-2 ([9]; clinical isolate SPN 16-2) | Anti-bacterial activity (MIC), strain SPN 16-4 ([9]; clinical isolate SPN 16-4) | Anti-bacterial activity (MIC), strain MSSE 15-3 ([10]; clinical isolate MSSE 15-3) | Anti-bacterial activity (MIC), strain MSSE 15-4 ([10]; clinical isolate MSSE 15-4) | Anti-bacterial activity (MIC), strain MSSE 15-5 ([10]; clinical isolate MSSE 15-5) | Anti-bacterial activity (MIC), strain MSSE 15-6 ([10]; clinical isolate MSSE 15-6) | Anti-bacterial activity (MIC), strain MRSE 15-1 ([12]; clinical isolate MRSE 15-1) | Anti-bacterial activity (MIC), strain MRSE 15-2 ([12]; clinical isolate MRSE 15-2) | Anti-bacterial activity (MIC), strain MRSE 15-3 ([12]; clinical isolate MRSE 15-3) | Anti-bacterial activity (MIC), strain MRSE 15-7 ([12]; clinical isolate MRSE 15-7)
2 mg/L: Anti-bacterial activity (MIC), strain EFM 15-6 ([7]; clinical isolate EFM 15-6) | Anti-bacterial activity (MIC), strain BCA 14-6 ([8]; clinical isolate BCA 14-6)
30%: inhibition at 30 µM ([1]; read-out: HCT116 inhibition rate/%)
59%: Inhibition of proliferation, Liver cancer BEL-7402 ([4]; concentration of 30 μM, 72 hours, 30 µM)
> 32 mg/L: Anti-bacterial activity (MIC), strain ECO+ 15-2 ([5]; clinical isolate ECO+ 15-2) | Anti-bacterial activity (MIC), strain ECO+ 15-3 ([5]; clinical isolate ECO+ 15-3) | Anti-bacterial activity (MIC), strain ECO− 15-1 ([5]; clinical isolate ECO− 15-1) | Anti-bacterial activity (MIC), strain ECO− 15-2 ([5]; clinical isolate ECO− 15-2) | Anti-bacterial activity (MIC), strain ECO− 15-3 ([5]; clinical isolate ECO− 15-3) | Anti-bacterial activity (MIC), strain ECO− 15-4 ([5]; clinical isolate ECO− 15-4) | Anti-bacterial activity (MIC), strain MSSA 15-6 ([6]; clinical isolate MSSA 15-6) | Anti-bacterial activity (MIC), strain EFM 15-1 ([7]; clinical isolate EFM 15-1) | Anti-bacterial activity (MIC), strain EFM 15-2 ([7]; clinical isolate EFM 15-2) | Anti-bacterial activity (MIC), strain EFM 15-3 ([7]; clinical isolate EFM 15-3) | Anti-bacterial activity (MIC), strain EFM 15-4 ([7]; clinical isolate EFM 15-4) | Anti-bacterial activity (MIC), strain EFA 15-1 ([11]; clinical isolate EFA 15-1) | Anti-bacterial activity (MIC), strain EFA 15-2 ([11]; clinical isolate EFA 15-2) | Anti-bacterial activity (MIC), strain EFA 15-3 ([11]; clinical isolate EFA 15-3) | Anti-bacterial activity (MIC), strain EFA 15-4 ([11]; clinical isolate EFA 15-4) | Anti-bacterial activity (MIC), strain EFA 15-5 ([11]; clinical isolate EFA 15-5) | Anti-bacterial activity (MIC), strain EFA 15-6 ([11]; clinical isolate EFA 15-6)
32 mg/L: Anti-bacterial activity (MIC), strain ECO+ 15-1 ([5]; clinical isolate ECO+ 15-1)
49%: inhibition at 30 µM ([2]; A549, 72 h, concentration of 30 μM)
